Literature values in US7012060B1, “TNF receptor and steroid hormone in a combined therapy” (priority 1995, dated 2006).

Experiments:
[1] = system: septic shock induced by lipopolysaccharides (LPS) alone; conditions: mice; cited from earlier work
coxsackievirus B4 = conditions: cited from earlier work
[2] = system: systemic lupus erythematosus; conditions: mouse model; cited from earlier work
herpes virus type 2 = conditions: cited from earlier work
TNF-α = conditions: both in vivo and in vitro; cited from earlier work
Semliki Forest virus = conditions: cited from earlier work

SMILES: C[C@]12CC[C@H](O)CC1=CC[C@@H]1[C@@H]2CC[C@]2(C)C(=O)CC[C@@H]12 [DHEA, Dehydroepiandrosterone]
- protection from septic shock [1]: protecting mice from septic shock
- systemic resistance against lethal viral infections (coxsackievirus B4): regulates the systemic resistance
- development of systemic lupus erythematosus [2]: prevent the development
- systemic resistance against lethal viral infections (herpes virus type 2): regulates the systemic resistance
- TNF-α levels after LPS administration (TNF-α): significantly blocked
- systemic resistance against lethal viral infections (Semliki Forest virus): regulates the systemic resistance
